According to patent US20260232767A1, “INTERLEUKIN-23 RECEPTOR ANTAGONIST PEPTIDES FOR USE IN THE TREATMENT OF PSORIASIS” (Janssen Pharmaceutica NV, priority 2023, published 2026):

Test system: subjects with moderate-to-severe plaque psoriasis
Experiment: PASI response, Example 1 16-week dose-ranging study
Assay type: in vivo, human
Settings: Week 16; for PASI 100% Improvement, n subjects / PASI ≥75% Improvement, n subjects / PASI ≥90% Improvement, n subjects / PASI ≥75% Improvement, % subjects / PASI ≥90% Improvement, % subjects: N=2
Description: The Psoriasis Area and Severity Index (PASI) is a system used for assessing and grading the severity of psoriatic lesions and their response to therapy. In the PASI system, the body is divided into four regions: the head, trunk, upper extremities, and lower extremities. Each of these areas is assessed and scored separately for erythema, induration, and scaling, which are each rated on a scale of 0 to 4 and extent of involvement on a scale of 0 to 6. The PASI produces a numeric score (a “PASI score”) that can range from 0 to 72. A higher score indicates more severe disease.
This was a randomized, double-blind, placebo-controlled, dose-ranging, parallel group, multicenter, interventional study in subjects with moderate-to-severe plaque psoriasis. A target of 240 subjects were enrolled in this study with 40 subjects planned per intervention group.
Clinician-reported outcomes including Psoriasis Area and Severity Index (PASI), Body Surface Area (BSA), Investigator's Global Assessment (IGA), Nail Psoriasis Area and Severity Index (NAPSI), Fingernail Physician's Global Assessment (f-PGA), Static Physician's Global Assessment of Genitalia (s-PGA-G), Physician's Global Assessment of Hands and/or Feet (hf-PGA), and Scalp Specific Investigator Global Assessment (ss-IGA) were obtained at Week 0, 8, and 16. PASI and IGA were also obtained at Weeks 1, 2, 4, and 12, and at Week 20, four weeks after the administration of the tablets has stopped.
The primary efficacy endpoint was the proportion of participants achieving a PASI 75 response at Week 16, defined as at least a 75% reduction from baseline in PASI total score.
For the primary analysis, composite strategy (non-responder imputation) was applied to address intercurrent event #1 (Discontinuation of study intervention due to lack of efficacy or due to an AE of worsening of psoriasis) and #2 (initiation of a protocol-prohibited medication or therapy that could improve psoriasis); and treatment policy strategy (observed data) was applied to intercurrent event #3 (Discontinuation of study intervention due to other reasons). Participants with missing data after application of ICEs are also considered as non-responders.
In addition to the response analysis, pairwise comparisons of each treatment group versus the placebo group were performed for the primary endpoint of PASI 75 at Week 16. Pairwise comparisons were not adjusted for multiplicity. The Cochran-Mantel-Haenszel chi-square statistic stratified by baseline weight category (≤90 kg, >90 kg) at a 2-sided significance level of 0.05 was used (Table 2).

[1] = 25 mg BID, peak plasma conc. <Q1
[2] = 25 mg BID, peak plasma conc. Q1 to <Q2
[3] = 25 mg BID, peak plasma conc. Q2 to <Q3
[4] = 25 mg BID, peak plasma conc. ≥Q3
[5] = 25 mg BID, trough plasma conc <Q1
[6] = 25 mg BID, trough plasma conc Q1 to <Q2
[7] = 25 mg BID, trough plasma conc Q2 to <Q3
[8] = 25 mg BID, trough plasma conc ≥Q3
[9] = 25 mg QD, peak plasma conc. <Q1
[10] = 25 mg QD, peak plasma conc. Q1 to <Q2
[11] = 25 mg QD, peak plasma conc. Q2 to <Q3
[12] = 25 mg QD, peak plasma conc. ≥Q3
[13] = 25 mg QD, trough plasma conc <Q1
[14] = 25 mg QD, trough plasma conc Q1 to <Q2
[15] = 25 mg QD, trough plasma conc Q2 to <Q3

CC(=O)NCCCC[C@@H]1NC(=O)[C@H](Cc2c[nH]c3c(C)cccc23)NC(=O)[C@H]([C@@H](C)O)NC(=O)[C@H](CC(N)=O)NC(=O)[C@@H](NC(C)=O)C(C)(C)SSC(C)(C)[C@@H](C(=O)N[C@@H](Cc2ccc(OCCN)cc2)C(=O)N[C@@H](Cc2ccc3ccccc3c2)C(=O)NC2(C(=O)N[C@@H](CCC(=O)O)C(=O)N[C@@H](CC(N)=O)C(=O)N[C@@H](Cc3cccnc3)C(=O)N(C)CC(N)=O)CCOCC2)NC1=O [IL-23 receptor antagonist peptide, Ac-[Pen]*-N-T-[W(7-Me)]-[Lys(Ac)]-[Pen]*-Phe[4-(2-aminoethoxy)]-[2-Nal]-[THP]-E-N-[3-Pal]-Sarc-NH2 (*[Pen]-[Pen]* formdisulfidebond)]
PASI 75 treatment difference vs placebo (25 mg BID): 41.9% | PASI 90 treatment difference vs placebo (25 mg BID): 24.5% (10.4%, | PASI 100 treatment difference vs placebo (25 mg BID): 9.7% (0.7%, | Subjects achieving PASI 75 (25 mg BID): 51.2% | Subjects achieving PASI 90 (25 mg BID): (26.8%) | Subjects achieving PASI 100 (25 mg BID): (9.8%) | PASI 75, % (25 mg BID, N=41): (51.2) % | PASI 90, % (25 mg BID, N=41): (26.8) % | PASI 100, % (25 mg BID, N=41): (9.8) % | PASI 100% Improvement, n subjects [1]: 0 | PASI ≥75% Improvement, n subjects [1]: 0 | PASI ≥90% Improvement, n subjects [1]: 0 | PASI 100% Improvement, n subjects [2]: 0 | PASI ≥75% Improvement, % subjects [2]: (100.0%) | PASI ≥75% Improvement, n subjects [2]: 2 | PASI ≥90% Improvement, n subjects [2]: 0 | PASI 100% Improvement, n subjects [3]: 0 | PASI ≥75% Improvement, % subjects [3]: (50.0%) | PASI ≥75% Improvement, n subjects [3]: 1 | PASI ≥90% Improvement, % subjects [3]: (50.0%) | PASI ≥90% Improvement, n subjects [3]: 1 | PASI 100% Improvement, n subjects [4]: 0 | PASI ≥75% Improvement, % subjects [4]: (50.0%) | PASI ≥75% Improvement, n subjects [4]: 1 | PASI ≥90% Improvement, % subjects [4]: (50.0%) | PASI ≥90% Improvement, n subjects [4]: 1 | PASI 100% Improvement, subjects [5]: 1 (16.7%) | PASI ≥75% Improvement, subjects [5]: 3 (50.0%) | PASI ≥90% Improvement, subjects [5]: 2 (33.3%) | PASI 100% Improvement, subjects [6]: 1 (16.7%) | PASI ≥75% Improvement, subjects [6]: 1 (16.7%) | PASI ≥90% Improvement, subjects [6]: 1 (16.7%) | PASI 100% Improvement, subjects [7]: 0 | PASI ≥75% Improvement, subjects [7]: 3 (50.0%) | PASI ≥90% Improvement, subjects [7]: 2 (33.3%) | PASI 100% Improvement, subjects [8]: 2 (33.3%) | PASI ≥75% Improvement, subjects [8]: 100.0% | PASI ≥90% Improvement, subjects [8]: 3 (50.0%) | PASI 75 treatment difference vs placebo (25 mg QD): 27.9% | PASI 90 treatment difference vs placebo (25 mg QD): 23.3% (9.6%, | PASI 100 treatment difference vs placebo (25 mg QD): 11.6% (2.4%, | Subjects achieving PASI 90 (25 mg QD): (25.6%) | Subjects achieving PASI 100 (25 mg QD): (11.6%) | PASI 75, % (25 mg QD, N=43): (37.2) % | PASI 90, % (25 mg QD, N=43): (25.6) % | PASI 100, % (25 mg QD, N=43): (11.6) % | PASI 100% Improvement, n subjects [9]: 0 | PASI ≥75% Improvement, % subjects [9]: (50.0%) | PASI ≥75% Improvement, n subjects [9]: 1 | PASI ≥90% Improvement, % subjects [9]: (50.0%) | PASI ≥90% Improvement, n subjects [9]: 1 | PASI 100% Improvement, n subjects [10]: 0 | PASI ≥75% Improvement, % subjects [10]: (50.0%) | PASI ≥75% Improvement, n subjects [10]: 1 | PASI ≥90% Improvement, % subjects [10]: (50.0%) | PASI ≥90% Improvement, n subjects [10]: 1 | PASI 100% Improvement, n subjects [11]: 0 | PASI ≥75% Improvement, % subjects [11]: (50.0%) | PASI ≥75% Improvement, n subjects [11]: 1 | PASI ≥90% Improvement, % subjects [11]: (50.0%) | PASI ≥90% Improvement, n subjects [11]: 1 | PASI 100% Improvement, n subjects [12]: 0 | PASI ≥75% Improvement, % subjects [12]: (50.0%) | PASI ≥75% Improvement, n subjects [12]: 1 | PASI ≥90% Improvement, % subjects [12]: (50.0%) | PASI ≥90% Improvement, n subjects [12]: 1 | PASI 100% Improvement, subjects [13]: 1 (20.0%) | PASI ≥75% Improvement, subjects [13]: 2 (40.0%) | PASI ≥90% Improvement, subjects [13]: 2 (40.0%) | PASI 100% Improvement, subjects [14]: 1 (16.7%) | PASI ≥75% Improvement, subjects [14]: 2 (33.3%) | PASI ≥90% Improvement, subjects [14]: 2 (33.3%) | PASI 100% Improvement, subjects [15]: 0) | PASI ≥75% Improvement, subjects [15]: 2 (40.0%) | PASI ≥90% Improvement, subjects [15]: 0
